One test has as its system Npc1^−/− mice. Nature of the test: Gait analysis (CatWalk). Format: in vivo, mouse. As to conditions: 0.1 g/kg from weaning, eight weeks of age, vs untreated littermates. The protocol: Separate groups of Npc1^−/− and Npc1^+/+ mice were left untreated, as controls. Gait analysis was performed on mice at eight weeks of age using a CatWalk® 15.0 system according to manufacturer's instructions (Noldus, Nottingham, UK). Five runs were recorded per animal. CatWalk® parameters measured were: • 1. Stand Mean: average duration (s) of paws in contact with glass plate; • 2. Step Cycle: duration (s) between two consecutive contacts of the same paw; • 3. Duty Cycle: percentage of time paws in contact with plate compared with time to complete a step cycle; • 4. Step Sequence (AB): percentage of time spent walking in LF-RH-RF-LH alternating pattern (LF: left front; RH: right hind; RF: right front; LH left hind); • 5. Cadence: step per seconds in a trial; • 6. Diagonal Support: percentage of time with simultaneous contact of diagonal paws with the glass plate (RF&LH or RH&LF). Motor Function Analysis

For another test, the system named is Npc1^−/− mouse. Description: Lifespan. Type of test: in vivo. Particulars: 0.1 g/kg from 3 weeks of age. The text has this: Separate groups of Npc1^−/− and Npc1^+/+ mice were left untreated, as controls.
The subject of test [1] is Aspartylglucosaminuria patient fibroblasts. Description: Lysosomal volume via LysoTracker. Particulars: 1 mM, 6 days, vs untreated. Type of test: cell-based, human.
Test [2] concerns Mucopolysaccharidosis Type VII (MPS VII) patient fibroblasts. Nature of the test: Lysosomal volume via LysoTracker. As to conditions: 1 mM, 6 days, vs untreated. Type of test: cell-based, human.
Test [3] deals with Hexb^−/− mouse (Sandhoff disease model). Description: Lifespan of Sandhoff mouse. Format: in vivo. As to conditions: 0.1 g/kg from 3 weeks of age, p<0.05 vs untreated. How it is done: This study made use of a mouse model of Sandhoff disease, the Hexb^−/− mouse, as described in Jeyakumar et al. (Jeyakumar, M. et al. (1999) Proc. Natl. Acad. Sci. USA 96: 6388-6393).
In FIG. 7A, acetyl-leucine-treated mice were treated with 0.1 g/kg acetyl-leucine from 3 weeks of age. The asterisks (*) indicates a p-value of <0.05 vs untreated Sandhoff mice. Data is average of n=6 mice per group. Without treatment, the median survival time of Sandhoff mice was 112 days. Treatment with acetyl-leucine (0.1 g/kg body weight since 3 weeks of age) increased the median lifespan to 120 days.

For test [4], the system named is patients with Tay-Sachs disease. Description: Case studies, patient evaluation (SARA, SCAFI, MoCA, mRDS, EQ-5D-5L). Format: in vivo, human. The source says: For example, to evaluate overall neurological status, mDRS, a four-domain scale (ambulation, manipulation, language and swallowing), may be applied. Cerebellar function may be evaluated using SARA, an eight-item clinical rating scale (gait, stance, sitting, speech, fine motor function and taxis; range 0-40, where 0 is the best neurological status and 40 the worst), and SCAFI, comprising the 8-m-Walking-Time (8MW; performed by having patients walking twice as quickly as possible from one line to another excluding turning), 9-Hole-Peg-Test (9HPT) and the number of “PATA” repetitions over 10 s. Subjective impairment and quality of life may be evaluated using the EQ-5D-5L questionnaire and VAS. To assess ocular motor function, 3-dimensional videooculography (EyeSeeCam) may be used to measure the peak velocity of saccades, gain of smooth pursuit, peak slow phase velocity of gaze-evoked nystagmus (gaze-holding function), peak slow phase velocity of optokinetic nystagmus, and gain of horizontal vestibulo-ocular reflex. To evaluate the cognitive state, WAIS-R or WISC-W, and MoCA, assessing different cognitive domains, including attention and concentration, executive functions, memory, language, visuoconstructional skills, conceptual thinking, calculations, and orientation with a maximum of 30 points and a cut-off score of 26, may be used. The skilled person will know how to perform these and other such tests.
Before treatment was commenced, examination of the patient indicated a Scale for Assessment and Rating of Ataxia (SARA) score of 15.5/40. In addition, results from the patient's Spinocerebellar Ataxia Functional Index (SCAFI) analysis were: • Mean 8-meters Walking Test (8MW): 21.6 s • MW 9-Hole Pegboard Test Dominant (9HPTD) (right): 48.3 s • MW 9-Hole Pegboard Test Non-Dominant (9HPTND): 44.9 s • MW PATA Word Test: 20 • Montreal Cognitive Assessment (MoCA): 18/30
The day following this examination, the patient was started on therapy with acetyl-leucine, at a dose of 3 g per day for the first week, followed by a dose of 5 g per day for the second week onwards.
The day of the examination, the patient was started on therapy with acetyl-leucine at a dose of 3 g per day for the first week, followed by a dose of 5 g per day for the second week onwards.
The patient was started on therapy with acetyl-leucine at a dose of 1.5 g per day for the first week, followed by a dose of 3 g per day for the second week onwards.

Test [5] has as its system patient with GM1 Gangliosidosis. Nature of the test: Case study, patient evaluation (SARA, mRDS, EQ-5D-5L). Type of test: in vivo, human. As to conditions: Ex. 6, GM1 Gangliosidosis; 1.5 then 3 g per day; after one month. The source says: Before treatment was commenced, examination of the patient indicated a Scale for Assessment and Rating of Ataxia (SARA) score of 35/40, a mRDS score of 15, and a EQ-5D-5L visual scale of 50. The patient was started on therapy with acetyl-leucine at a dose of 1.5 g per day for the first week, followed by a dose of 3 g per day for the second week onwards.

The subject of test [6] is patient with spinocerebellar ataxia 28 (SCA 28). Description: Case study, clinical evaluation. Type of test: in vivo, human. As to conditions: Ex. 14, SCA 28; 5 g per day; after about one month. How it is done:
A gait analysis was performed before treatment commenced. After about one month of treatment, medication was stopped and the patient was evaluated. […] The patient reported that they no longer walked like a robot and could climb the stairs without using the banisters.

Test [7] relates to amyloid precursor protein C-terminal fragments (APP-CTFs). Nature of the test: APP-CTF levels relative to total APP in the cerebellum. As to conditions: NPC1−/− mice, 0.1 g/kg body weight daily from 3 weeks of age; sacrificed at 8 weeks. Type of test: in vivo, mouse. The protocol:
The Niemann-Pick Disease Type C (NPC) mouse model shares a number of pathological features with Alzheimer's disease (AD) as described herein. […] Mice were sacrificed at 8 weeks of age. Levels of amyloid precursor protein C-terminal fragments (APP-CTFs) were evaluated relative to total amyloid precursor protein (APP) levels in the cerebellum for wild type, untreated wild type NPC1^−/− mice, and AL-treated wild type NPC1^−/− mice. Levels of microtubule-associated protein 1A/1B-light chain 3-phosphatidylethanolamine conjugate (LC3-II) were also evaluated relative to levels of tubulin loading control for wild type, untreated wild type NPC1^−/− mice, and AL-treated wild type NPC1^−/− mice.

On to `CC(=O)NC(CC(C)C)C(=O)O` (racemic) [acetyl-DL-leucine], for which the gait properties result with Npc1^−/− mice was “significantly improved gait”. In addition, the values for the lifespan result (in the test with Npc1^−/− mouse; in test [3]) were “small but statistically significant increase in lifespan” and “statistically significant increase in the lifespan”, respectively. Moreover, the “LysoTracker fluorescence (lysosomal volume)” value in test [1] and in test [2] was “trend in reducing LysoTracker fluorescence” throughout. In addition, the symptoms on re-examination result in [4] (Ex. 5 Patient 1, Tay-Sachs, 3 then 5 g per day, after four months) was “stable condition with slightly improved cognitive function but had deterioration of stance, gait and fine motor function”; in [4] (Ex. 5 Patient 1, Tay-Sachs, 3 then 5 g per day, after one month), “improved fine motor skills and reduced hand tremor”; in test [4] (Ex. 5 Patient 2, Tay-Sachs, 3 then 5 g per day, after one month), “increased enunciation, improved postural stability, and enhanced cognitive function”; in test [4] (Ex. 5 Patient 3, Tay-Sachs, 1.5 then 3 g per day, after one month) it was “improved postural stability, gait and stance, and could speak single words”; in test [5], “stable general condition, increased gait (more fluent), and stable stance in natural position”. In addition, in test [6], the symptomatology entry was “reduced dizziness (almost vanished), and a more stable gait”. Further, in test [7], the “APP-CTF levels relative to total APP in the cerebellum” value is reported as “lowering of APP-CTFs”.
